Test results reported in PubChem BioAssay AID328 (DTP/NCI, 2004).
Values joined by “and” are separate entries in the source; they are usually repeats but may differ in a detail not shown here. Equal values may be shown once. Toxic doses and inconclusive results are not listed.

Test system: BDF1 mice, P388 leukemia ip, median survival T/C
Assay: NCI In Vivo Anticancer Drug Screen. Data for tumor model P388 Leukemia (intraperitoneal) in B6D2F1 (BDF1) mice
Conditions: endpoint: median survival time, higher = longer survival
Summary of the method: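 Mice carrying the transplantable tumour receive compound or vehicle. Survival is followed in each arm, and the treated measure is divided by the vehicle measure.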

[1] = dose: 50.0 mg/kg/injection, schedule: Q01DX009 (ip), vehicle: saline with Tween-80
[2] = dose: 100.0 mg/kg/injection, schedule: Q01DX009 (ip), vehicle: saline with Tween-80
[3] = dose: 200.0 mg/kg/injection, schedule: Q01DX009 (ip), vehicle: saline with Tween-80
[4] = dose: 25.0 mg/kg/injection, schedule: Q04DX003 (ip), vehicle: saline
[5] = dose: 50.0 mg/kg/injection, schedule: Q04DX003 (ip), vehicle: saline
[6] = dose: 100.0 mg/kg/injection, schedule: Q04DX003 (ip), vehicle: saline
[7] = dose: 200.0 mg/kg/injection, schedule: Q04DX003 (ip), vehicle: saline

With CCCCCCCC[N+](C)(CCCCCCCC)CCCCCCCC the T/C (dose: 0.12 mg/kg/injection, schedule: Q01DX009 (ip), vehicle: saline) was 108 % of control, the T/C (dose: 0.18 mg/kg/injection, schedule: Q01DX009 (ip), vehicle: saline) was 116 % of control and the T/C (dose: 0.28 mg/kg/injection, schedule: Q01DX009 (ip), vehicle: saline) was 166 % of control. The T/C (dose: 0.42 mg/kg/injection, schedule: Q01DX009 (ip), vehicle: saline) was 95 % of control and 100 % of control, the T/C (dose: 0.43 mg/kg/injection, schedule: Q01DX009 (ip), vehicle: saline) was 155 % of control and the T/C (dose: 0.96 mg/kg/injection, schedule: Q01DX009 (ip), vehicle: saline) was 108 % of control and 121 % of control. The T/C (dose: 1.0 mg/kg/injection, schedule: Q01DX009 (ip), vehicle: saline) was 100 % of control, the T/C (dose: 1.3 mg/kg/injection, schedule: Q01DX009 (ip), vehicle: saline) was 112 % of control and the T/C (dose: 2.0 mg/kg/injection, schedule: Q01DX009 (ip), vehicle: saline) was 100 % of control. For the same molecule, the T/C (dose: 2.1 mg/kg/injection, schedule: Q01DX009 (ip), vehicle: saline) was 120 % of control, the T/C (dose: 2.32 mg/kg/injection, schedule: Q04DX003 (ip), vehicle: saline) was 104 % of control and the T/C (dose: 3.1 mg/kg/injection, schedule: Q01DX009 (ip), vehicle: saline) was 95 % of control. The T/C (dose: 4.65 mg/kg/injection, schedule: Q04DX003 (ip), vehicle: saline) was 95 % of control, the T/C (dose: 6.5 mg/kg/injection, schedule: Q01DX001 (ip), vehicle: saline) was 100 % of control and the T/C (dose: 13.0 mg/kg/injection, schedule: Q01DX001 (ip), vehicle: saline) was 100 % of control.

Nc1nc(F)nc2nc[nH]c12 was tested, and the T/C (dose: 10.0 mg/kg/injection, schedule: Q01DX009 (ip), vehicle: Klucel (hydroxypropylcellulose) (HPC)) was 121 % of control and the T/C (dose: 20.0 mg/kg/injection, schedule: Q01DX009 (ip), vehicle: Klucel (hydroxypropylcellulose) (HPC)) was 121 % of control.

For ClC(Cl)=C1OCCO1, the T/C [1] was 104 % of control, the T/C [2] was 98 % of control and the T/C [3] was 100 % of control.

In the case of CC(=O)ON(CC(=O)OCc1ccccc1)C(C)=O, the T/C (dose: 12.5 mg/kg/injection, schedule: Q01DX009 (ip), vehicle: other) is reported as 100 % of control, the T/C (dose: 25.0 mg/kg/injection, schedule: Q01DX009 (ip), vehicle: other) is reported as 102 % of control and the T/C (dose: 50.0 mg/kg/injection, schedule: Q01DX009 (ip), vehicle: other) is reported as 118 % of control. For the same molecule, the T/C (dose: 100.0 mg/kg/injection, schedule: Q01DX009 (ip), vehicle: other) was 102 % of control and the T/C (dose: 200.0 mg/kg/injection, schedule: Q01DX009 (ip), vehicle: other) was 100 % of control.

With COC1=C[C@H](C)[C@H]2C[C@@H]3OC(=O)CC[C@@H]3C[C@]2(C)C1=O the T/C (dose: 2.0 mg/kg/injection, schedule: Q01DX009 (ip), vehicle: saline + alcohol) was 115 % of control, the T/C (dose: 4.0 mg/kg/injection, schedule: Q01DX009 (ip), vehicle: saline + alcohol) was 106 % of control and the T/C (dose: 8.0 mg/kg/injection, schedule: Q01DX009 (ip), vehicle: saline + alcohol) was 106 % of control. For the same molecule, the T/C (dose: 16.0 mg/kg/injection, schedule: Q01DX009 (ip), vehicle: saline + alcohol) was 103 % of control.

With O=C(Nc1cccc(C(F)(F)F)c1)Nc1ccc(Oc2ccc(Cl)cc2)cc1S(=O)(=O)O the T/C (dose: 50.0 mg/kg/injection, schedule: Q04DX003 (ip), vehicle: saline sonified) was 104 % of control and the T/C (dose: 100.0 mg/kg/injection, schedule: Q04DX003 (ip), vehicle: saline sonified) was 100 % of control.

COc1ccccc1N1CCN(CC(O)COc2ccccc2C(C)=O)CC1 (centres undefined) was tested, and the T/C (dose: 25.0 mg/kg/injection, schedule: Q01DX009 (ip), vehicle: saline with Tween-80) was 95 % of control, the T/C [1] was 91 % of control and the T/C [2] was 112 % of control.

For COC(=O)[CH](C[N+](=O)[O-])[Hg][Cl] (centres undefined), the T/C (dose: 1.56 mg/kg/injection, schedule: Q01DX009 (ip), vehicle: Klucel (hydroxypropylcellulose) (HPC)) was 104 % of control, the T/C (dose: 2.32 mg/kg/injection, schedule: Q04DX003 (ip), vehicle: Klucel (hydroxypropylcellulose) (HPC)) was 104 % of control and the T/C (dose: 3.12 mg/kg/injection, schedule: Q01DX009 (ip), vehicle: Klucel (hydroxypropylcellulose) (HPC)) was 113 % of control. The T/C (dose: 4.65 mg/kg/injection, schedule: Q04DX003 (ip), vehicle: Klucel (hydroxypropylcellulose) (HPC)) was 113 % of control.

In the case of CCCCCCCCCCCCCCSC(CC(=O)O)C(=O)O (centres undefined), the T/C (dose: 15.0 mg/kg/injection, schedule: Q01DX009 (ip), vehicle: saline with Tween-80) is reported as 87 % of control, the T/C (dose: 30.0 mg/kg/injection, schedule: Q01DX009 (ip), vehicle: saline with Tween-80) is reported as 98 % of control and the T/C (dose: 60.0 mg/kg/injection, schedule: Q01DX009 (ip), vehicle: saline with Tween-80) is reported as 94 % of control.

O=C(/C=C/c1ccc2c(c1)OCO2)/C=C/c1ccc2c(c1)OCO2 was tested, and the T/C (dose: 12.5 mg/kg/injection, schedule: Q01DX009 (ip), vehicle: saline) was 101 % of control, the T/C (dose: 12.5 mg/kg/injection, schedule: Q04DX003 (ip), vehicle: saline) was 105 % of control and the T/C (dose: 25.0 mg/kg/injection, schedule: Q01DX009 (ip), vehicle: saline) was 96 % of control. The T/C [4] was 112 % of control, the T/C [5] was 114 % of control and the T/C [6] was 114 % of control. For the same molecule, the T/C (dose: 200.0 mg/kg/injection, schedule: Q01DX009 (ip), vehicle: saline) was 92 % of control and the T/C [7] was 114 % of control.

For FC(Cl)(Cl)c1nc2nc(Cl)c(Cl)nc2[nH]1, the T/C (dose: 3.12 mg/kg/injection, schedule: Q01DX009 (ip), vehicle: water) was 104 % of control, the T/C (dose: 6.25 mg/kg/injection, schedule: Q01DX009 (ip), vehicle: water) was 107 % of control and the T/C (dose: 6.25 mg/kg/injection, schedule: Q04DX003 (ip), vehicle: water) was 116 % of control. The T/C (dose: 12.5 mg/kg/injection, schedule: Q01DX009 (ip), vehicle: water) was 100 % of control, the T/C (dose: 12.5 mg/kg/injection, schedule: Q04DX003 (ip), vehicle: water) was 116 % of control and the T/C (dose: 25.0 mg/kg/injection, schedule: Q01DX009 (ip), vehicle: water) was 108 % of control. The T/C (dose: 25.0 mg/kg/injection, schedule: Q04DX003 (ip), vehicle: water) was 102 % of control, the T/C (dose: 50.0 mg/kg/injection, schedule: Q01DX009 (ip), vehicle: water) was 118 % of control and the T/C (dose: 50.0 mg/kg/injection, schedule: Q04DX003 (ip), vehicle: water) was 116 % of control. The T/C (dose: 100.0 mg/kg/injection, schedule: Q01DX009 (ip), vehicle: water) was 101 % of control and the T/C (dose: 100.0 mg/kg/injection, schedule: Q04DX003 (ip), vehicle: water) was 102 % of control.

With CCOC(=O)C1OC1(C)c1ccccc1 (centres undefined) the T/C (dose: 75.0 mg/kg/injection, schedule: Q01DX009 (ip), vehicle: Klucel (hydroxypropylcellulose) (HPC)) was 95 % of control, the T/C (dose: 100.0 mg/kg/injection, schedule: Q04DX003 (ip), vehicle: Klucel (hydroxypropylcellulose) (HPC)) was 100 % of control and 103 % of control and the T/C (dose: 150.0 mg/kg/injection, schedule: Q01DX009 (ip), vehicle: Klucel (hydroxypropylcellulose) (HPC)) was 90 % of control. For the same molecule, the T/C (dose: 200.0 mg/kg/injection, schedule: Q04DX003 (ip), vehicle: Klucel (hydroxypropylcellulose) (HPC)) was 100 % of control and 111 % of control, the T/C (dose: 300.0 mg/kg/injection, schedule: Q01DX009 (ip), vehicle: Klucel (hydroxypropylcellulose) (HPC)) was 113 % of control and the T/C (dose: 400.0 mg/kg/injection, schedule: Q04DX003 (ip), vehicle: Klucel (hydroxypropylcellulose) (HPC)) was 92 % of control and 104 % of control.

With COc1cccc(N=C(N)N=C(N)N)c1 the T/C [4] was 95 % of control, the T/C (dose: 50.0 mg/kg/injection, schedule: Q01DX001 (ip), vehicle: saline) was 100 % of control and the T/C [5] was 91 % of control. For the same molecule, the T/C (dose: 100.0 mg/kg/injection, schedule: Q01DX001 (ip), vehicle: saline) was 100 % of control and the T/C [6] was 95 % of control.

O/N=c1/cc(-c2cccs2)ss1 was tested, and the T/C [1] was 109 % of control, the T/C [2] was 104 % of control and the T/C [6] was 117 % of control. The T/C [3] was 87 % of control, the T/C [7] was 118 % of control and the T/C (dose: 400.0 mg/kg/injection, schedule: Q01DX009 (ip), vehicle: saline with Tween-80) was 97 % of control. For the same molecule, the T/C (dose: 400.0 mg/kg/injection, schedule: Q04DX003 (ip), vehicle: saline) was 124 % of control.

With Cc1ccc(S(=O)(=O)NC(=O)OC23COCN2COC3)cc1 the T/C [1] was 116 % of control.
